The source made the active and inactive calls. No rule for the calls is given here.

In this test the target is RanGTP-importin-beta complex (human Ran / KPNB1). As to the kind of experiment: Ran–importin-beta interaction inhibitors, confirmation, biochemical, FRET, CFP/YFP, cell-free homogeneous (AID 2823). The conditions noted are these: CFP-Ran/YFP-importin-beta FRET ratio.
For the molecule `CC12OC1C1(O)CCCC1=CC2=O` (centres undefined), the IC50 (in general, the midpoint of a concentration-inhibition curve) is > 50 µM (inactive).
Next, `COc1ccc(N=Cc2cc(Cc3ccccc3Cl)cc([N+](=O)[O-])c2O)cc1OC`: > 50 µM (inactive); `N#C/C(=C/c1ccc(N2CCCCC2)o1)C(=O)NCCc1c[nH]c2ccccc12`: 0.936 µM.
For the molecule `CC(C)(C)Nc1nc(SCC(=O)Nc2ccccc2)nc(N2CCOCC2)n1`, the IC50 is > 50 µM (inactive).
Next, `COc1ccccc1C1C(C(N)=O)=C(C)Nc2ncnn21` (centres undefined): > 50 µM (inactive).
Take `O=[N+]([O-])c1cc(CN2CCCC2)ccc1Sc1ccc(Cl)cc1`: the IC50 was > 50 µM (inactive).
Next, `COc1ccc(-c2c(C)sc(NC(=O)c3ccnn3C)c2C#N)cc1`: > 50 µM (inactive); `CCOCCCNC(=O)NC(=O)CN1CCN(S(=O)(=O)c2ccc3c(c2)OCCO3)CC1`: > 50 µM (inactive).
With `Oc1ccc(-c2[nH]ncc2-c2cccc3cccnc23)c(O)c1` the figure was > 50 µM (inactive); with `O=C(Cn1nnc(-c2ccncc2)n1)NCCc1ccccc1`, > 50 µM (inactive); with `Cc1ccc(S(=O)(=O)Nc2nc3ccccc3nc2NCc2ccco2)cc1`, 18.2 µM.
Next, `CCOc1cc(NS(=O)(=O)c2ccc(NC(C)=O)cc2)c(OCC)cc1NC(=O)C(C)C`: > 50 µM (inactive); `COc1ccc2cc(C#N)c(N3CCN(C(=O)c4ccccc4C)CC3)nc2c1`: > 50 µM (inactive); `CCC(=O)Nc1cccc(NC(=S)NC(=O)c2cccs2)c1`: > 50 µM (inactive).
With `CCCCn1c(NC(=O)c2ccc(Br)o2)c(S(=O)(=O)c2ccccc2)c2nc3ccccc3nc21`, the IC50 is 4.83 µM.
`C/C(=N\NC(=O)c1c(C)nc2ccccn12)c1ccc(O)cc1O`: the IC50 was > 50 µM (inactive).
With `O=C(Cc1ccccc1C(=O)O)Nc1cccc2ccccc12` the figure was > 50 µM (inactive); with `Nc1nonc1-n1nnc(C(=O)N/N=C/c2ccccc2)c1CSc1ccc(Cl)cc1`, > 50 µM (inactive); with `CCn1c(=O)cc(N2CCOCC2)[nH]c1=O`, > 50 µM (inactive).
Regarding `CCc1ccc(C2C(C#N)=C(N)SC(N)=C2C#N)cc1`, the IC50 was > 50 µM (inactive).
With `COc1ccc(CCNc2oc(-c3ccco3)nc2C#N)cc1` the figure was > 50 µM (inactive); with `CCN(CC)S(=O)(=O)c1ccc(NC(=O)c2ccc(Sc3nncn3C)c([N+](=O)[O-])c2)cc1`, > 50 µM (inactive); with `O=C(c1cccc(-c2ccccc2)c1)N1CC[C@@H](N2CCC(O)CC2)[C@H](O)C1`, > 50 µM (inactive).
Next, `CN(C)S(=O)(=O)c1cccc(NC(=O)CNC2CCCCC2)c1`: > 50 µM (inactive); `CC1CC1c1ccc(/C=C(\C#N)C(=O)Nc2ccc(Cl)cc2)o1` (centres undefined): > 50 µM (inactive); `Cc1ccccc1-n1cnc2cc(NCc3cccs3)ccc21`: > 50 µM (inactive).
`COc1cccc(C(=O)c2cc3ccc(O)cc3oc2=O)c1`: the IC50 is 26.9 µM.
For the molecule `Cc1cccc2cc(C#N)c(NCCNC(=O)COc3ccccc3)nc12`, the IC50 is > 50 µM (inactive).
With `CCOC(=O)/C=C1\SCC(=O)N1CC(=O)c1ccc[nH]1` the figure was > 50 µM (inactive); with `Cc1cccc(NC(=O)c2cc(S(=O)(=O)N(C)c3ccc(F)cc3)ccc2Cl)n1`, > 50 µM (inactive).
Consider `Cc1c(OCC(=O)NCc2ccncc2)ccc2c3c(c(=O)oc12)CCC3`, for which the IC50 was > 50 µM (inactive).
With `Cc1nc(Nc2cnc(/C=C/c3cc(C(=O)Nc4cccc(C(F)(F)F)c4)ccc3C)cn2)cc(N2CCNCC2)n1` the figure was 19.7 µM.
With `Cc1cc2oc3cc(NCCC4CCCN4C)ccc3c(=O)c2cc1C` (centres undefined), the IC50 was 8.12 µM.
Next, `CC(C)CCNC(=O)C(c1ccco1)N(Cc1ccccc1)C(=O)c1snc(C(N)=O)c1N` (centres undefined): > 50 µM (inactive); `CC(=O)[C@@H]1[C@@H](C)N(Cc2ccccc2)C(=O)N[C@H]1c1cccc(C(F)(F)F)c1`: > 50 µM (inactive); `CCOC(=O)c1sc(N/N=C/c2cc(Br)c(O)c(OC)c2)nc1C`: > 50 µM (inactive).
As for `Cc1ccc(-c2cc3nc(-c4ccccc4)cc(N4CCC5(CC4)OCCO5)n3n2)cc1`, the half-maximal inhibitory concentration (IC50) is 44 µM.
In the case of `CC(C)OC(=O)c1c(N)n(CC2CCCO2)c2nc3ccccc3nc12` (centres undefined), the concentration for half-maximal inhibition (IC50) was 18 µM.
As to `COc1cc(/C(O)=C(\C#N)c2nc3ccccc3[nH]2)cc(OC)c1OC`, the IC50 is 15.5 µM.
With `COCCNC(=S)N1CCCN(c2nc3cc(C)ccc3cc2C#N)CC1` the figure was 29.5 µM.
Next, `COc1cc(/C=N/NC(=O)c2cc(C)oc2C)ccc1O`: > 50 µM (inactive); `CC1CN(Cc2cc(=O)oc3cc(O)ccc23)CC(C)O1` (centres undefined): 19 µM; `Cc1ccc(/C=C2/C(=O)c3ccc(C(=O)O)cc3C2=O)o1`: > 50 µM (inactive).
On to `CS(=O)(=O)N(CC(=O)NCCSCc1ccco1)c1ccc(Cl)cc1`, for which the IC50 is > 50 µM (inactive).
Next, `Cc1ccc(S(=O)(=O)NCCc2cn3nc(C)c(C)nc3n2)cc1C`: 33.3 µM; `Cc1ccccc1NC(=O)/C(C#N)=C\c1cn(CC(=O)O)c2ccccc12`: 47.6 µM; `COc1ccccc1CNC(=O)Cn1ccsc1=N`: > 50 µM (inactive).
For the molecule `Cc1nc2[nH]c(=O)c3c(n2n1)NC1=C(C(=O)CC(C)(C)C1)C3c1ccc(F)cc1` (centres undefined), the 50% inhibitory concentration (IC50) is 2.73 µM.
Next, `COC(=O)c1cccnc1NC(=S)NNC(=O)c1ccccc1`: > 50 µM (inactive).
Next, `O=C1C=C(Nc2ccc(Cl)cc2Cl)CC(c2ccco2)C1` (centres undefined): > 50 µM (inactive); `COCCNC(=O)c1c(NC(=O)c2ccco2)n(Cc2ccccc2)c2nc3ccccc3nc12`: 1.91 µM.
With `O=C1/C(=C/c2cccs2)Sc2ccccc21` the figure was > 50 µM (inactive); with `CCOCCCNC(=S)NCCCNc1nc2cc3c(cc2cc1C#N)OCO3`, 9.41 µM.
Turning to `N#Cc1c(N)[nH]c(=S)c(C#N)c1-c1ccccc1`, the IC50 was > 50 µM (inactive).
On to `CC(NCc1cccs1)C(=O)NC1CCCCC1` (centres undefined), for which the IC50 is > 50 µM (inactive).
Next, `Cc1ccc(N2CCN(c3ccc(C)cc3)C2c2ccccn2)cc1`: > 50 µM (inactive).
Next, `O=C(c1ccccc1)c1cc2ccc(O)cc2oc1=O`: 13 µM.
Next, `CC1Cc2cc(/C(O)=C3/C(=O)C(=O)N(Cc4ccncc4)C3c3ccc(N(C)C)cc3)ccc2O1` (centres undefined): > 50 µM (inactive); `O=c1nc(-c2ccccc2Cl)c2cc(F)ccc2[nH]1`: > 50 µM (inactive); `COc1ccc(CCn2c(C)nc3ccccc3c2=O)cc1OC`: > 50 µM (inactive).
As for `Cc1cc(C(=O)N2CCc3c([nH]c4ccccc34)C2c2c(F)cccc2Cl)no1` (centres undefined), the IC50 was > 50 µM (inactive).
With `O=S(=O)(Cc1ccc(Cl)cc1)Nc1ccc2c(c1)OCO2` the figure was > 50 µM (inactive); with `CCCn1c(=N)c(C(=O)NCc2ccc3c(c2)OCO3)cc2c(=O)n3cccc(C)c3nc21`, 10.2 µM.
With `O=c1cc(N2CCC(Cc3ccccc3)CC2)[nH]c(=O)n1C1CCCCC1` the figure was > 50 µM (inactive).

The values above are taken from PubChem BioAssay AID2823 (Broad Institute, 2010).
